Test results from PubChem BioAssay (NCI).
“And” between values parts separate entries of the source, which are not always exact repeats. Identical values can stand only once.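 A five-concentration, 48-hour dose response in 96-well plates underlies each endpoint, interpolated linearly between surrounding concentrations. GI50 is the concentration that inhibits growth by half. Definition used: TGI = concentration required for complete inhibition of growth.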

Experiments:
Assay in all cases: inhibition of tumour cell growth, NCI panel, 48 h
786-0 renal = tested on: 786-0 renal
HCT-15 colon = tested on: HCT-15 colon
HL-60(TB) leukemia = tested on: HL-60(TB) leukemia
LOX IMVI melanoma = tested on: LOX IMVI melanoma
NCI/ADR-RES ovarian = tested on: NCI/ADR-RES ovarian
OVCAR-5 ovarian = tested on: OVCAR-5 ovarian
SK-MEL-28 melanoma = tested on: SK-MEL-28 melanoma
SN12C renal = tested on: SN12C renal
SR leukemia = tested on: SR leukemia
SW-620 colon = tested on: SW-620 colon
TK-10 renal = tested on: TK-10 renal
U251 CNS = tested on: U251 CNS

SMILES	TGI (786-0 renal) [µM]	TGI (HCT-15 colon)	TGI (HL-60(TB) leukemia)	TGI (LOX IMVI melanoma)	TGI (NCI/ADR-RES ovarian)	TGI (OVCAR-5 ovarian)	TGI (SK-MEL-28 melanoma)	TGI (SN12C renal)	TGI (SR leukemia)	TGI (SW-620 colon)	TGI (TK-10 renal)	TGI (U251 CNS)	GI50 (HCT-15 colon)	GI50 (NCI/ADR-RES ovarian)	GI50 (OVCAR-5 ovarian)	GI50 (SK-MEL-28 melanoma)	GI50 (SN12C renal)	GI50 (TK-10 renal)	GI50 (U251 CNS)
O=C1CC2(CCC(O)(c3ccc(Cl)cc3)C(C(=O)c3ccc(Cl)cc3)C2)C(=O)c2ccccc2N1 (stereo not drawn)	4.24	> 100 µM	> 31.6 µM	> 86.8 µM	> 44.5 µM	> 100 µM	20.6 µM	24.8 µM	> 100 µM	> 100 µM	39.2 µM	> 31.9 µM							
CC1NC(/C(=C/c2ccccc2O)NC(=O)c2ccccc2)OC1=O (stereo not drawn)	> 50	> 50 µM	> 50 µM	> 50 µM	> 50 µM	> 50 µM	> 50 µM	> 50 µM	> 50 µM	> 50 µM	> 50 µM	> 50 µM							
CCCNC(=S)/N=C\c1c(O)c2ccccc2oc1=O	> 100	> 100 µM	> 100 µM	> 100 µM	> 100 µM	> 100 µM	> 100 µM	> 100 µM	> 100 µM	> 100 µM	> 100 µM	> 100 µM							
O=C1CCCC2=C1CC1=C(CCCC1=O)N2c1cccc2ccccc12	> 100	> 100 µM	> 100 µM	> 100 µM	> 100 µM	> 100 µM	> 100 µM	> 100 µM	> 100 µM	> 100 µM	> 100 µM	> 100 µM							
CC(=O)c1ccc2c(c1)oc(=O)n2CCN1CCCCC1	> 100	> 100 µM	> 100 µM	> 100 µM	> 100 µM	> 100 µM	> 100 µM	> 100 µM	> 100 µM	> 100 µM	> 100 µM	> 100 µM							
O=C1/C(=C\c2cccc(Oc3ccccc3)c2)SC(c2ccccc2)N1c1ccc(Cl)cc1 (stereo not drawn)	> 100	> 100 µM	> 100 µM	> 100 µM	> 100 µM	> 100 µM	> 100 µM	> 100 µM	> 55.9 µM	> 100 µM	> 100 µM	> 100 µM							
O=S1(=O)CCN(Cc2ccccc2)/C1=N\S(=O)(=O)c1ccc(Cl)cc1	34.5	37 µM	65.9 µM	33.5 µM	35.8 µM	33.4 µM	32.8 µM	33.3 µM	59.9 µM	36.7 µM	31 µM	33.5 µM							
CCOC(=O)CCC(NC(=O)c1ccc(Nc2nc3cc(C(F)(F)F)ccc3nc2-c2ccccc2)cc1)C(=O)OCC (stereo not drawn)	> 100	> 100 µM	> 100 µM	> 100 µM	> 100 µM	> 100 µM	> 100 µM	> 100 µM	> 100 µM	> 100 µM	> 100 µM	> 100 µM							
CC1(C)OCC(C2OC(N3O[C@H](CI)C[C@@H]3c3ccccc3)C3OC(C)(C)OC23)O1 (stereo partly drawn)	> 100	> 100 µM	> 100 µM	> 100 µM	> 100 µM	> 100 µM	> 100 µM	> 100 µM	> 100 µM	> 100 µM	> 100 µM	> 100 µM							
C[Si](C)(C)OC1c2[nH]c3ccccc3c2CN2C(=O)CCC12 (stereo not drawn)	> 100	> 100 µM	> 100 µM	> 100 µM	> 100 µM	> 100 µM	> 100 µM	> 100 µM	> 100 µM	> 100 µM	> 100 µM	> 100 µM							
Cc1ccccc1N(C)S(=O)(=O)c1ccccc1[N+](=O)[O-]	> 100	> 100 µM	> 100 µM	> 100 µM	> 100 µM	> 100 µM	> 100 µM	> 100 µM	> 100 µM	> 100 µM	> 100 µM	> 100 µM							
C/C=C(/C)C(=O)O[C@H]1C(C)=C[C@]23C(=O)[C@@H](C=C(COC(C)=O)[C@@H](O)[C@]12O)[C@H]1[C@@H](C[C@H]3C)[C@@]1(C)OC(=O)/C(C)=C\C	8.93	7.17 µM	5.67 µM	9.65 µM	6.82 µM	6.48 µM	11.8 µM	5.34 µM	10.9 µM	9.76 µM	7.69 µM	7.55 µM							
Cn1c2nc3ccccc3c-2cc2ccccc21	> 100	7.3 µM and 23.4 µM	8.22 µM and 17 µM	> 31.8 µM and 22.5 µM	20.2 µM and > 100 µM	36.9 µM and 40.9 µM	> 43.2 µM and 23.1 µM	36.3 µM and 34.9 µM	7.25 µM and 10.7 µM	> 48.7 µM and 39 µM	70.3 µM and > 100 µM	> 53.5 µM and 32.4 µM	1.14 µM and 4.06 µM	2.76 µM and 12.1 µM	4.12 µM and 11.4 µM	4.87 µM and 10.8 µM	3.14 µM and 6.46 µM	7.63 µM and 31 µM	4.17 µM and 8.75 µM
